Experimental data: patent US5075289A, “9-R-azacyclic erythromycin antibiotics” (priority 1988, dated 1991)
≈ marks a conversion by molar mass, not a printed value.

Tests used:
[1] = tested on: Staphylococcus aureus (NCTC 10649); assay: In-vivo mouse protection assay (acute mouse protection test); set-up: species or system Swiss albino mice; conditions: 168 h
Description: (§1) The acute mouse protection test is conducted on ten mice with each of three levels of drug. Mouse mortality is used to calculate an ED50 value, i.e., the dose of drug required to protect 50% of the test animals against death due to the inoculum challenge.
(§2) The acute mouse protection test is conducted on female, Swiss albino mice, 18-20 grams in weight. […] To check the potency of the inoculum, a titration of the indicated test organism is carried out in control animals. The treatment group of animals is dosed with the test compound at 1 and 5 hours post infection and observed for 7 days. The ED50 values are calculated using the mortality data collected.

[2] = tested on: Streptococcus pyogenes C-203; assay: as above; set-up: species or system Swiss albino mice; conditions: 168 h
Description: as §1, §2

[3] = tested on: Streptococcus pneumoniae (6303); assay: as above; set-up: species or system Swiss albino mice; conditions: 168 h
Description: as §1, §2

[4] = tested on: Staphylococcus aureus NCTC 10649; assay: In vitro antibacterial activity, agar dilution MIC; format: cell-based; conditions: NCTC10649, S. aureus NCTC 10649, Brain Heart Infusion agar, 20-24 hours, read-out: MIC
Description: (§3) The antimicrobial spectra of a number of compounds of the invention were tested by the following method:
(§4) Twelve petri dishes containing successive aqueous dilutions of the test compound mixed with 10 ml of sterilized Brain Heart Infusion agar (Difco 0418-01-5) are prepared. Each plate is inoculated with 1:100 (or 1:10 for slow growing strains, primarily Micrococcus and Streptococcus) dilutions of up to 32 different microorganisms, using a Steers replicator block The inoculated plates are incubated at 35°-37° C. for 20-24 hours. In addition, a control plate, using BHI agar containing no test compound, is prepared and incubated at the beginning and end of each test.
(§5) An additional plate containing a compound having known susceptibility patterns for the organisms being tested and belonging to the same antibiotic class as the test compound is also prepared and incubated as a further control, as well as to provide test-to-test comparability. Erythromycin A was used for this purpose.
(§6) After incubation, each disk is read. The MIC is defined as the lowest concentration of drug yielding no growth, a slight haze, or sparsely isolated colonies on the inoculum spot as compared to the growth control.

[5] = tested on: Streptococcus bovis A5169; assay: In vitro antibacterial activity, agar dilution MIC; format: cell-based; conditions: read-out: MIC
Description: as §3, §4, §5, §6

Escherichia coli SS = assay: In vitro antibacterial activity, agar dilution MIC; format: cell-based; conditions: read-out: MIC
Description: as §3, §4, §5, §6

[6] = tested on: Micrococcus luteus ATCC 4698; assay: In vitro antibacterial activity, agar dilution MIC; format: cell-based; conditions: ATCC4698, M. luteus ATCC 4698, Brain Heart Infusion agar, 20-24 hours, read-out: MIC
Description: as §3, §4, §5, §6

[7] = tested on: Streptococcus agalactiae CMX 508; assay: In vitro antibacterial activity, agar dilution MIC; format: cell-based; conditions: CMX508, S. agalactiae CMX 508, Brain Heart Infusion agar, 20-24 hours, read-out: MIC
Description: as §3, §4, §5, §6

[8] = tested on: Micrococcus luteus ATCC 9341; assay: In vitro antibacterial activity, agar dilution MIC; format: cell-based; conditions: ATCC9341, M. luteus ATCC 9341, Brain Heart Infusion agar, 20-24 hours, read-out: MIC
Description: as §3, §4, §5, §6

[9] = tested on: Staphylococcus aureus CMX 503A; assay: In vitro antibacterial activity, agar dilution MIC; format: cell-based; conditions: CMX503A, S. aureus CMX 503A, Brain Heart Infusion agar, 20-24 hours, read-out: MIC
Description: as §3, §4, §5, §6

[10] = tested on: Streptococcus pyogenes EES61; assay: In vitro antibacterial activity, agar dilution MIC; format: cell-based; conditions: S. pyogenes EES61, Brain Heart Infusion agar, 20-24 hours, read-out: MIC
Description: as §3, §4, §5, §6

[11] = tested on: Staphylococcus aureus CMX 686B; assay: In vitro antibacterial activity, agar dilution MIC; format: cell-based; conditions: CMX686B, S. aureus CMX 686B, Brain Heart Infusion agar, 20-24 hours, read-out: MIC
Description: as §3, §4, §5, §6

[12] = tested on: Staphylococcus aureus ATCC 6538P; assay: In vitro antibacterial activity, agar dilution MIC; format: cell-based; conditions: ATCC6538P, S. aureus ATCC 6538P, Brain Heart Infusion agar, 35-37° C., 20-24 hours, read-out: MIC
Description: as §3, §4, §5, §6

[13] = tested on: Staphylococcus epidermidis 3519; assay: In vitro antibacterial activity, agar dilution MIC; format: cell-based; conditions: S. epidermidis 3519, Brain Heart Infusion agar, 20-24 hours, read-out: MIC
Description: as §3, §4, §5, §6

Staphylococcus aureus 45 = assay: In vitro antibacterial activity, agar dilution MIC; format: cell-based; conditions: S. aureus 45, Brain Heart Infusion agar, 20-24 hours, read-out: MIC
Description: as §3, §4, §5, §6

[14] = tested on: Streptococcus pyogenes 2548 INDUC; assay: In vitro antibacterial activity, agar dilution MIC; format: cell-based; conditions: S. pyogenes 2548 INDUC, Brain Heart Infusion agar, 20-24 hours, read-out: MIC
Description: as §3, §4, §5, §6

Escherichia coli H560 = assay: In vitro antibacterial activity, agar dilution MIC; format: cell-based; conditions: E. coli H560, Brain Heart Infusion agar, 20-24 hours, read-out: MIC
Description: as §3, §4, §5, §6

[15] = tested on: Staphylococcus aureus CMX 553; assay: In vitro antibacterial activity, agar dilution MIC; format: cell-based; conditions: CMX553, S. aureus CMX 553, Brain Heart Infusion agar, 20-24 hours, read-out: MIC
Description: as §3, §4, §5, §6

[16] = tested on: Staphylococcus aureus A5177; assay: In vitro antibacterial activity, agar dilution MIC; format: cell-based; conditions: S. aureus A5177, Brain Heart Infusion agar, 20-24 hours, read-out: MIC
Description: as §3, §4, §5, §6

Escherichia coli DC-2 = assay: In vitro antibacterial activity, agar dilution MIC; format: cell-based; conditions: DC2
Description: as §3, §4, §5, §6

[17] = tested on: Enterococcus faecium ATCC 8043; assay: In vitro antibacterial activity, agar dilution MIC; format: cell-based; conditions: ATCC8043, read-out: MIC
Description: as §3, §4, §5, §6

Escherichia coli Juhl = assay: In vitro antibacterial activity, agar dilution MIC; format: cell-based
Description: as §3, §4, §5, §6

[18] = tested on: Streptococcus pyogenes 930 CONST; assay: In vitro antibacterial activity, agar dilution MIC; format: cell-based; conditions: 930CONST
Description: as §3, §4, §5, §6

[19] = tested on: Staphylococcus aureus 642A; assay: In vitro antibacterial activity, agar dilution MIC; format: cell-based; conditions: S. aureus 642A, Brain Heart Infusion agar, 20-24 hours, read-out: MIC
Description: as §3, §4, §5, §6

[20] = tested on: Staphylococcus aureus 45 RAR 2; assay: microbe, parasite or virus in culture; format: cell-based; conditions: 45RAR2
Description: as §3, §4, §5, §6

CC[C@H]1OC(=O)[C@H](C)[C@@H](O[C@H]2C[C@@](C)(OC)[C@@H](O)[C@H](C)O2)[C@H](C)[C@@H](O[C@@H]2O[C@H](C)C[C@H](N(C)C)[C@H]2O)[C@](C)(O)C[C@@H](C)C(=O)[C@H](C)[C@@H](O)[C@]1(C)O [erythromycin]
ED50 ([1]; NCTC10649, po): 98 mg/kg | ED50 ([1]; NCTC10649, sc): 20 mg/kg | ED50 ([2]; C203, po): 12 mg/kg | ED50 ([2]; C203, sc): 1.8 mg/kg | ED50 ([3]; po): 21.5 mg/kg | ED50 ([3]; sc): 0.9 mg/kg

CC[C@H]1OC(=O)[C@H](C)[C@@H](O[C@H]2C[C@@](C)(OC)[C@H](N)[C@H](C)O2)[C@H](C)[C@@H](O[C@@H]2O[C@H](C)C[C@H](N(C)C)[C@H]2O)[C@](C)(O)C[C@@H](C)[C@@H](N2CCCCC2)[C@H](C)[C@@H](O)[C@]1(C)O [Example 32]
MIC [4]: 1.56 µg/mL (≈ 1.94 µM) | MIC [5]: 0.02 µg/mL (≈ 0.0249 µM) | MIC (Escherichia coli SS): 0.2 µg/mL (≈ 0.249 µM) | MIC [6]: 0.78 µg/mL (≈ 0.972 µM) | MIC [7]: 0.1 µg/mL (≈ 0.125 µM) | MIC [8]: 0.05 µg/mL (≈ 0.0623 µM) | MIC [9]: 0.39 µg/mL (≈ 0.486 µM) | MIC [10]: 0.1 µg/mL (≈ 0.125 µM) | MIC [11]: 0.78 µg/mL (≈ 0.972 µM) | MIC [12]: 0.78 µg/mL (≈ 0.972 µM) | MIC [13]: 0.78 µg/mL (≈ 0.972 µM) | MIC (Staphylococcus aureus 45): 0.78 µg/mL (≈ 0.972 µM) | MIC [14]: 6.2 µg/mL (≈ 7.73 µM) | MIC (Escherichia coli H560): 3.1 µg/mL (≈ 3.86 µM) | MIC [15]: 0.78 µg/mL (≈ 0.972 µM) | MIC [16]: 6.2 µg/mL (≈ 7.73 µM) | MIC (Escherichia coli DC-2): 12.5 µg/mL (≈ 15.6 µM) | MIC [17]: 0.2 µg/mL (≈ 0.249 µM) | MIC (Escherichia coli Juhl): 25 µg/mL (≈ 31.2 µM) | MIC [18]: > 100 µg/mL | MIC [19]: 1.56 µg/mL (≈ 1.94 µM) | MIC [20]: 1.56 µg/mL (≈ 1.94 µM)
